In US11040937B2, “Amide derivative” (TOHOKU UNIVERSITY, priority 2014, dated 2021):
Where two headings read alike, the source gives them in different places.

What was measured:
A549/OPNluc cells = experiment: WST assay for cell growth / cell viability; assay type: cell-based, human; details: 48±4 hours, WST-1, read-out: IC50 (concentration for 50% inhibition of cell growth)
Excerpt: (§1) A reporter vector pOPN1-luc obtained by the insertion of a human OPN promoter sequence (−765 to 23) into the multiple cloning site of pGL-3 basic vector (Promega) expresses luciferase when transfected into animal cells. The pOPN1-luc was transfected into a human non-small cell lung cancer-derived cell line A549 together with pPUR (Clontech) that expresses a puromycin resistance gene (puromycin-N-acetyl-transferase gene), and then cells expressing luciferase which could grow a puromycin-supplemented medium were selected. The selected cells were named “A549/OPNluc cells” and used for observation of luciferase expression inhibitory effect under control of OPN promoter, as described below.
(§2) A test compound was added to a culture containing A549/OPNluc cells to observe its influence on the amount of luciferase expressed in the cells. Here, it can be considered that when the test compound has a cell cytotoxity or cell growth inhibitory effect, the total expression level of luciferase is reduced due to a reduction in the number of living cells that depends on the concentration of the test compound, and therefore the luciferase expression inhibitory effect of the test compound under control of OPN promoter cannot be properly evaluated. For this reason, WST assay for quantification of cell proliferation ability or cell viability by colorimetric measurement was firstly performed to determine IC50 (concentration for 50% inhibition of cell growth) of the test compound for cell growth. Then, luciferase activity measurement was performed to determine EC50 (concentration for 50% inhibition of luciferase expression) of the test compound for luciferase expression under control of OPN promoter.
A549/OPNluc cells were suspended in DMEM medium containing 10% fetal calf serum (FCS) and 1% penicillin/streptomycin (P/S) at 3×10^4 cells/mL to obtain a cell suspension, and then the cell suspension was dispensed into each well of a 96-well plate in an amount of 100 μL. In order to perform the assay in triplicate, wells were prepared for a control group, and 3 wells were prepared for each test compound-treated group at each concentration. After the dispensation, the 96-well plate was incubated in a CO2 incubator (at 37° C. and 5% CO2) for 24±4 hours.
The present compound was dissolved in dimethylsulfoxide (DMSO) to obtain a 50 mmol/L solution, and the compound solution was stored at −80° C. The compound solution was diluted with DMSO in 2-fold dilution series (usually, in the range of 0.31 mmol/L to 20 mmol/L) to prepare test compound solutions whose concentration varied by two fold for WST assay.
Each solution of only DMSO (control) and the diluted test compound (sample) was dispensed into each well containing the cell suspension in an amount of 0.5 μL (200-fold dilution). The solution in each well was mixed with a vortex mixer, and then the 96-well plate was incubated in a CO2 incubator (at 37° C. and 5% CO2) for 48±4 hours. Then, Premix WST-1 Reagent (TAKARA BIO INC.) was added in an amount of 10 μL to each well. The solution in each well was mixed with a vortex mixer, and then the 96-well plate was incubated at 37° C. and 5% CO2. After 60 minutes or 120 minutes, the absorbance values (450 nm) were measured with a microplate reader (Bio-Rad; Benchmark or Thermo Scientific; Varioskan Flash).
The absorbance values of the control wells and the sample wells at each concentration were input into an Excel file to determine the percentages of absorbance values of the sample wells at each concentration with to the average absorbance value of the control wells. From the determined values, a fitted curve was determined by the method of least squares to calculate IC50.

[1] = tested on: human OPN promoter (pOPN1-luc) in A549/OPNluc cells; experiment: Luciferase assay: luciferase expression under control of OPN promoter; assay type: cell-based
Excerpt: as §1, §2
The same steps as in the above-mentioned WST assay were performed in which each solution of only DMSO (control) or the diluted test compound (sample) was added in an amount of 0.5 μL to each well containing the cell suspension to achieve 200-fold dilution, and the solution in each well was mixed with a vortex mixer, and the 96-well plate was incubated in a CO2 incubator (at 37° C. and 5% CO2) for 48±4 hours.
Luciferase Assay Substrate (hereinafter referred to as “LAS”) supplied in Luciferase Assay Systems (Promega: Cat #E1500) was dissolved in Luciferase Assay Buffer (LAB) to prepare a luciferase reagent. 5×Cell Culture Lysis Reagent (hereinafter referred to as “CCLR”) was diluted by 5 times with water to prepare 1×CCLR.
After the incubation for 48±4 hours, the medium in each well was completely removed, and 1×CCLR was dispensed into each well in an amount of 50 μL. The 96-well plate was allowed to stand at room temperature for 30 minutes, and then 1×CCLR in each well was used as an assay sample. The luciferase reagent (100 μL) was placed in a tube for chemiluminescence measurement, and the assay sample (20 μL) was added to the tube and mixed with the luciferase reagent to measure chemiluminescence (Relative Luminescence Intensity: RLU) using TB 20/20 (Promega) or GloMax 20/20 (Promega).
The RLU values of the control wells and the sample wells at each concentration were input into an Excel file, and the percentages of RLU values of the sample wells at each concentration to the average RLU value of the control wells were determined. From these values, a fitted curve was determined by the method of least squares to calculate EC50. Also, the percentages of RLU values of the sample wells at each concentration to the average RLU value of the control wells were divided by the percentages of absorbance values of the compounds in WST assay at the same concentrations as those of this assay (to the control), and a fitted curve was determined from the calculated values by the method of least squares to calculate corrected EC50.

[2] = Homo sapiens, A549, A549/OPNluc cells
[3] = Homo sapiens, A549, A549/OPNluc cells, 48±4 hours, read-out: EC50 (concentration for 50% inhibition of luciferase expression)
[4] = Homo sapiens, A549, EC50 corrected for decrease in viable cells (RLU % divided by WST %), read-out: corrected EC50

SMILES | IC50 (A549/OPNluc cells; [2]) [µM] | EC50 [1, 3] [µM] | EC50 [1, 4] [µM] | IC50 (A549/OPNluc cells; A549/OPNluc cells) [µM] | EC50 ([1]; A549/OPNluc cells, 48±4 hours, read-out: EC50 (concentration for 50% inhibition of luciferase expression)) [µM] | EC50 ([1]; EC50 corrected for decrease in viable cells (RLU % divided by WST %), read-out: corrected EC50) [µM]
COc1ccc(Oc2cccc(C(=O)CCNC(=O)c3ccc(O)cc3)c2N)cc1OC [Compound 16, N-(3-(2-Amino-3-(3,4-dimethoxyphenoxy)phenyl)-3-oxopropyl)-4-hydroxybenzamide] | 34.9 | 9.8 | 12.5 | – | – | –
O=C1NCCc2c1[nH]c1c(Oc3ccc(O)cc3)cccc21 [Compound 18, 8-(4-Hydroxyphenoxy)-1,2,3,4-tetrahydro-β-carboline-1-one] | 49.4 | > 50 | – | – | – | –
COc1ccc(Oc2ccccc2NC(=O)CCNC(=O)c2ccc(O)cc2)cc1 [Compound 29, N-(3-(2-(4-methoxyphenoxy)phenylamino)-3-oxopropyl)-4-hydroxybenzamide] | > 100 | 51.4 | 62.1 | – | – | –
CC(=O)NCCC(=O)c1cccc(Oc2ccc(O)cc2)c1N [Compound 8, N-(3-(2-Amino-3-(4-hydroxyphenoxy)phenyl)-3-oxopropyl)-acetamide] | > 100 | > 100 | – | – | – | –
Nc1c(Oc2ccc(Cl)cc2)cccc1C(=O)CCNC(=O)c1ccc(O)cc1 [Compound 17, N-(3-(2-Amino-3-(4-chlorophenoxy)phenyl)-3-oxopropyl)-4-hydroxybenzamide] | 47.7 | 3.7 | 4.2 | – | – | –
O=C(CCC(=O)Nc1cccc(Oc2ccc(Cl)cc2)c1)Nc1ccc(O)cc1 [Compound 23, N-(4-Hydroxyphenyl)-4-(3-(4-chlorophenoxy)phenylamino)-4-oxobutanamide] | > 100 | 71.5 | 82.8 | 87.3 | 40.6 | 50.9
Nc1c(Oc2ccc(O)cc2)cccc1C(=O)CCNC(=O)c1ccc(O)cc1 [Compound 1, N-(3-(2-Amino-3-(4-hydroxyphenoxy)phenyl)-3-oxopropyl)-4-hydroxybenzamide] | 65.9 | 17.1 | 24.5 | – | – | –
COc1ccc(Oc2ccccc2NC(=O)CNC(=O)c2ccc(O)cc2)cc1 [Compound 28, N-(2-(2-(4-Methoxyphenoxy)phenylamino)-2-oxoethyl)-4-hydroxybenzamide] | > 100 | 41.5 | 53.7 | – | – | –
O=C(NCCc1c[nH]c2c(Oc3ccc(O)cc3)cccc12)c1ccc(O)cc1 [Compound 2, 4-Hydroxy-N-(2-(7-(4-hydroxyphenoxy)-1H-indol-3-yl)ethyl)benzamide] | 51 | 26.8 | 60.3 | – | – | –
Cc1ccc(Oc2cccc(C(=O)CCNC(=O)c3ccc(O)cc3)c2N)cc1 [Compound 14, N-(3-(2-Amino-3-(4-methylphenoxy)phenyl)-3-oxopropyl)-4-hydroxybenzamide] | 61.1 | 5.6 | 5 | – | – | –
O=C(CCNC(=O)c1cccs1)Nc1cccc(Oc2ccc(Cl)cc2)c1 [Compound 35, N-(3-(3-(4-Chlorophenoxy)phenylamino)-3-oxopropyl)thiophene-2-carboxamide] | 74.6 | 23.8 | 41.4 | – | – | –
Nc1c(Oc2ccc(O)cc2)cccc1C(=O)CCNC(=O)C1CCCCC1 [Compound 10, N-(3-(2-Amino-3-(4-hydroxyphenoxy)phenyl)-3-oxopropyl)-cyclohexanecarboxamide] | 52.8 | 31.5 | 41.7 | – | – | –
O=C(Nc1cccc(Oc2ccc(Cl)cc2)c1)C1CCCN(C(=O)c2ccc(O)cc2)C1 (centres unmarked) [Compound 33, N-(3-(4-Chlorophenoxy)phenyl)-1-(4-hydroxyphenylcarbonyl)piperidine-3-carboxamide] | 25.9 | 8.5 | 11.1 | – | – | –
O=C(NCCC(=O)c1cccc(O)c1O)c1ccc(Oc2ccc(O)cc2)cc1 [Compound 3, N-(3-(2,3-Dihydroxyphenyl)-3-oxopropyl)-4-(4-hydroxyphenoxy)benzamide] | 32.5 | 32.2 | 103 | – | – | –
Nc1c(O)cccc1C(=O)CCNC(=O)c1ccc(O)cc1 [Compound 13, N-(3-(2-Amine-3-hydroxyphenyl)-3-oxopropyl)-4-hydroxybenzamide] | > 200 | > 200 | – | – | – | –
COc1ccc(Oc2ccc(NC(=O)CCNC(=O)c3ccc(O)cc3)cc2)cc1 [Compound 30, N-(3-(4-(4-methoxyphenoxy)phenylamino)-3-oxopropyl)-4-hydroxybenzamide] | 52.3 | 7 | 12.6 | – | – | –
COc1cccc(C(=O)NCCC(=O)c2cccc(Oc3ccc(O)cc3)c2N)c1 [Compound 7, N-(3-(2-Amino-3-(4-hydroxyphenoxy)phenyl)-3-oxopropyl)-3-methoxybenzamide] | 63.3 | 35.6 | 43.7 | – | – | –
Nc1c(Oc2ccc(O)cc2)cccc1C(=O)CCNC(=O)C1CCOCC1 [Compound 11, N-(3-(2-Amino-3-(4-hydroxyphenoxy)phenyl)-3-oxopropyl)-(tetrahydro-2H-pyran-4-yl)-carboxamide] | 200 | 166 | – | – | – | –
CC(=O)Nc1ccc(C(=O)NCCC(=O)c2cccc(Oc3ccc(Cl)cc3)c2N)cc1 [Compound 20, N-(3-(2-amino-3-(4-chlorophenoxy)phenyl)-3-oxopropyl)-4-acetylaminobenzamide] | > 100 | 16.3 | 18 | – | – | –
Nc1c(Oc2ccc(C(F)(F)F)cc2)cccc1C(=O)CCNC(=O)c1ccc(O)cc1 [Compound 15, N-(3-(2-Amino-3-(4-(trifluoromethyl)phenoxy)phenyl)-3-oxopropyl)-4-hydroxybenzamide] | 35.4 | 5.6 | 5.3 | – | – | –
COc1ccc(Oc2cccc(C(=O)CCNC(=O)c3ccc(OC)cc3)c2N)cc1 [Compound 5, N-(3-(2-Amino-3-(4-methoxyphenoxy)phenyl)-3-oxopropyl)-4-methoxybenzamide] | 64.9 | 19.5 | 22.6 | – | – | –
Nc1c(Oc2ccc(O)cc2)cccc1C(=O)CCNC(=O)c1ccc(F)cc1 [Compound 9, N-(3-(2-Amino-3-(4-hydroxyphenoxy)phenyl)-3-oxopropyl)-4-fluorobenzamide] | 93.7 | 41.5 | 65.6 | – | – | –
